{
  "source": "patent US9186344B2",
  "about": "“Glycogen or polysaccharide storage disease treatment method” (Baylor Research Institute, priority 2004, dated 2015)",
  "key": {"[1]": {"test": "Blood acylcarnitine profile after triheptanoin via nasogastric tube", "format": "in vivo, horse", "from_the_text": "Acylcarnitine Profiles. Acylcarnitines and carnitine levels in dried blood spots (dbs), plasma and amniotic fluid by automated electrospray tandem mass spectrometry Acylcarnitines are extracted from blood spots, plasmas and amniotic fluid with methanol containing stable isotopically labeled internal standards. The extract is derivatized to form butyl esters. An automated sample introduction system delivers the samples to the electrospray tandem mass spectrometer (ESI-MS/MS) operating in the multiple channel analysis mode in which acylcarnitines are identified, profiled, and quantified with stable isotopically labeled internal standards. This test also provides quantification of free, sum of acylcarnitines, and total carnitine levels.\nHorses: Eight healthy, fit 4 year old thoroughbred geldings may be used in a study. These horses are all sound and trained to the treadmill. The ability of horses to absorb and digest C7 oil was first determined."}, "[2]": {"system": "FOD patients (CPT I, CACT, CPT II, VLCAD, TFP, LCHAD, SCAD deficiency)", "test": "Odd chain fatty acid (triheptanoin) diet in patients with mitochondrial fat oxidation defects (FOD)", "format": "in vivo, human", "details": "for Patient mortality / Patient mortality (deaths/patients): C7 Diet", "from_the_text": "Other examples of FODs that derive from errors in metabolism include: Carnitine Palmitoyl Transferase I (CPT I) deficiency, Carnitine-Acylcarnitine Translocase (CACT) deficiency, Carnitine Palmitoyl Transferase […] deficiency, very long chain acyl-CoA dehydrogenase (VLCAD) deficiency, Trifunctional Protein (TFP) deficiency, long chain acyl 3-hydroxy CoA dehydrogenase (LCHAD) and short chain acyl CoA dehydrogenase (SCAD) deficiency. Patients having each of these diseases were located and placed on an odd chain fatty acid diet, with informed consent and following under IRB.\nThe odd chain fatty acid diet and therapy of the present invention was compared to conventional treatments, which include: (1) a low fat, high carbohydrate diet; avoid fasting; frequent or continuous feeding and night time corn starch; or (2) a medium chain triglyceride (MCT oil) for long chain disorders; or (3) insulin and glucose to inhibit lipolysis. However, current treatments fail to treat the hypoglycemia and hepatomegaly (which often persist), the frequency and severity of Rhabdomyolysis; muscle weakness and fatigue are not improved and heart function often remains abnormal. Biochemically, the failure of existing therapies leave patients with impaired Acetyl-CoA production and ketogenesis, there remains an increase Acyl-CoA:CoA (mitochondrion) ratio during illness, a decreased NADH:NAD ratio during illness (mitochondrion), hypoglycemia and hyperammonemia.\nTable 4 summarized a comparison of patent mortality for patients with FOD of conventional treatment (based on the literature, see *Neonatal onset; Conventional Diet Rx: JIMD 22: 488,1999), and the odd chain fatty acids of the present invention. There is a demonstrable increase in patient survival across a number of FODs."}, "[3]": {"system": "polysaccharide storage myopathy (PSSM)", "test": "Treatment of horses with polysaccharide storage myopathy with triheptanoin diet", "format": "in vivo, horse", "method": "Treatment of Horses. […] The first was an 8 year old mare who was unable to walk or exercise without severe muscle pain, rhabdomyolysis, and “locking up.” The owners were approaching “putting the animal down” (killing it). […] A second horse was encountered at 4 months with proven polysaccharide storage myopathy (PSSM) that was not able to walk adequately or nurse from its mother. The owners were prepared to kill the animal but decided to try the triheptanoin diet first. […] A third horse, also an 8 year old mare, developed PSSM and “locked up.” She was no longer available to ride and could no longer jump."}, "[4]": {"system": "adult-onset GSD II (acid maltase deficiency) patient", "test": "Clinical course and pCO2 on triheptanoin diet, Example 1 patient", "format": "in vivo, human", "from_the_text": "During the subsequent 2 years, the patient experienced progressive muscle weakness, affecting strength and endurance, swallowing and producing urgency for urination and defecation. The patient's breathing became a major issue and weight had decreased from ˜127 to 101 lbs (46 Kg) over this interval. […] Home O2 was started and upon respiratory arrest was intubated and unsuccessfully extubated leading to emergency admission lasting one month. Following informed consent, the patient agreed to enter an approved Institutional Review Board (IRB) Protocol for dietary therapy with triheptanoin oil.\nClinical and Biochemical Course on Therapy. […] Esophageal dysmotility was documented. A percutaneous endoscopic gastrostomy (PEG) was placed on the sixth hospital day.\nThe diet was based on vivonex and ˜1500 Kcal was given by nasogastric tube, on admission. […] Total caloric intake was raised from ˜1500 to 1700 to 1900 per day with these dietary changes during […] 33 day admission.\nThe patient began ambulating by the 10th day that improved steadily, showering with assistance by the 28th day. Pneumonia on day 17 responded to therapy and was extubated on day 23. They were discharged on bilevel positive airway pressure (BIPAP), the C7 diet, and carnitine supplement."}, "[5]": {"details": "dietary triheptanoin supplementation, FOD patients"}, "[6]": {"details": "on C7 diet and carnitine supplement"}},
  "data": [
    {"smiles": "CCCCCCC(=O)OCC(COC(=O)CCCCCC)OC(=O)CCCCCC", "note": "[C7, triheptanoin]", "values": [
      {"measurement": "time of peak of C7 acyl carnitine", "setting": "[1]; 0.5 gm/kg via nasogastric tube, fasted 12 hours, three horses", "result": 90, "unit": "min"},
      {"measurement": "time of peak serum concentration of C3 acylcarnitine", "setting": "[1]; in vivo", "result": 120, "unit": "min"},
      {"measurement": "time of peak serum concentration of C5 acylcarnitine", "setting": "[1]; in vivo", "result": 120, "unit": "min"},
      {"measurement": "Patient mortality", "setting": "[2]; CACT, neonatal onset", "result": 100, "unit": "%"},
      {"measurement": "Patient mortality (deaths/patients)", "setting": "[2]; CACT, neonatal onset", "result": "1/1"},
      {"measurement": "retinopathy (Choroideremia)", "setting": "[2]; LCHAD patients", "result": "unchanged"},
      {"measurement": "Patient mortality", "setting": "[2]; LCHAD", "result": 0, "unit": "%"},
      {"measurement": "Patient mortality (deaths/patients)", "setting": "[2]; LCHAD", "result": "0/9"},
      {"measurement": "peripheral neuropathy", "setting": "[2]; TFP patients", "result": "unchanged"},
      {"measurement": "Patient mortality", "setting": "[2]; TFP", "result": 0, "unit": "%"},
      {"measurement": "Patient mortality (deaths/patients)", "setting": "[2]; TFP", "result": "1/5"},
      {"measurement": "Patient mortality", "setting": "[2]; VLCAD", "result": 5, "unit": "%"},
      {"measurement": "Patient mortality (deaths/patients)", "setting": "[2]; VLCAD", "result": "1/19"},
      {"measurement": "Rhabdomyolysis", "setting": "[2]; [5]", "result": "marked attenuation of Rhabdomyolysis"},
      {"measurement": "cardiomyopathies", "setting": "[2]; [5]", "result": "cardiomyopathies were resolved"},
      {"measurement": "glucose homeostasis", "setting": "[2]; [5]", "result": "normal glucose homeostasis was observed"},
      {"measurement": "hepatomegaly", "setting": "[2]; [5]", "result": "elimination of hepatomegaly"},
      {"measurement": "mortality", "setting": "[2]; [5]", "result": "reduced mortality"},
      {"measurement": "muscle strength and endurance", "setting": "[2]; [5]", "result": "improved muscle strength and endurance"},
      {"measurement": "CPK (creatine kinase) levels", "setting": "[2]; long-chain defects, FIG. 9", "result": "rapidly suppresses CPK levels"},
      {"measurement": "time to become asymptomatic", "setting": "[3]; first horse, 8 year old mare, triheptanoin in feed pellets", "result": "≤ 30", "unit": "days"},
      {"measurement": "blood enzyme levels related to muscle disease (including serum creatine phosphokinase)", "setting": "[3]; second horse, 4 month foal", "result": "had normalized"},
      {"measurement": "time to running and playing without muscle pain", "setting": "[3]; second horse, 4 month foal", "result": "≤ 24", "unit": "h"},
      {"measurement": "symptoms after adjustment of the dose for weight gain", "setting": "[3]; second horse, dose back to 2 grams/Kg body weight", "result": "eliminated all symptoms"},
      {"measurement": "clinical status", "setting": "[3]; third horse, 8 year old mare, 1.0 gm/Kg/day, one week of diet treatment", "result": "asymptomatic with normal blood chemistry levels"},
      {"measurement": "pCO2 (35-45)", "setting": "[4]; Hospital Day 1, C7 26% Kcal", "result": 43},
      {"measurement": "pCO2 (35-45)", "setting": "[4]; Hospital Day 4, C7 35% Kcal", "result": 51},
      {"measurement": "pCO2 (35-45)", "setting": "[4]; Hospital Day 7, C7 35% Kcal", "result": 42},
      {"measurement": "pCO2 (35-45)", "setting": "[4]; Hospital Day 23, C7 40% Kcal, extubated", "result": 48},
      {"measurement": "pCO2 (35-45)", "setting": "[4]; Hospital Day 33, C7 40% Kcal, discharge", "result": 44},
      {"measurement": "gastrostomy feeds stopped (swallowing improved)", "setting": "[4]; after discharge", "result": 7, "unit": "months"},
      {"measurement": "patient weight", "setting": "[4]; by 15 months post-discharge, 46 Kg on admission", "result": 60, "unit": "kg"},
      {"measurement": "day of extubation", "setting": "[4]; hospital admission on C7 diet", "result": 23, "unit": "days"},
      {"measurement": "return to work half-time after discharge", "setting": "[4]; [6]", "result": 5, "unit": "weeks"},
      {"measurement": "working full-time after discharge", "setting": "[4]; [6]", "result": "≤ 10", "unit": "weeks"},
      {"measurement": "full vital capacity", "setting": "[4]; post-discharge follow-up", "result": "40-45 % of predicted"},
      {"measurement": "urgency for urination and defecation", "setting": "[4]; within 13 hours of beginning the C7 diet", "result": "had ceased and remained normal for the rest of the admission"},
      {"measurement": "pCO2", "setting": "[4]; within 13 hours of beginning the C7 diet, fell from 68, normal 35-45", "result": 43}
    ]}
  ]
}
